Key:
Assay in all cases: HeLa cell assay (HIV-LTR β-galactosidase reporter)
[1] = system: isogenic HIV-1 RT mutant virus G190A; type: cell-based; conditions: Human immunodeficiency virus 1, HeLa, read-out: IC50 (nM) Range
Procedure: (§1) The HeLa cell assay was performed according to a modification of Kimpton J. and Emerman M., Detection of replication-competent and pseudotyped human immunodeficiency virus with a sensitive cell line on the basis of activation of an integrated β-galactosidase gene, J. Virol. 66:2232-2239 (1992), in which HIV-1 infection is detected by the activation of an HIV-LTR driven β-galactosidase reporter that is integrated into the genome of a CD4^+ HeLa cell line. Quantitation of β-galactosidase is achieved by measuring the activation of a chemiluminescent substrate (Tropix). The concentration of each compound required to inhibit 50% (IC50) of the HIV-1 induced β-galactosidase signal, relative to untreated controls, was determined for each isogenic, recombinant virus.
(§2) HeLa-CD4-LTR-β-gal cells were obtained from the NIH AIDS Research and Reference Reagent Program. Cells were propagated in DMEM containing 10% fetal bovine serum, 0.2 mg/ml geneticin and 0.1 mg/ml hygromycin B. Cells were routinely split by trypsinization when confluency reached 80% (approximately every 2 to 3 days).
(§3) DNA encoding the HIV-1 reverse transcriptase was subcloned from a M13 phage into a general shuttle vector, pBCSK+, as a ˜1.65 kbp EcoRI/HindIII ended DNA fragment. The HIV DNA insert of the resulting plasmid, pRT2, was completely sequenced on both strands prior to use in site directed mutagenesis experiments. Specific amino acid replacements were made using Stratagene Quick Change reagents and mutagenic oligonucleotides from Oligos. Following mutagenesis, the entire mutant RT coding sequence was verified by sequencing both DNA strands.
(§4) Mutant HIV-1 strains were isolated by a modified Recombinant Virus Assay (Kellam P. and Larder B., Recombinant virus assay: a rapid, phenotypic assay for assessment of drug susceptibility of human immunodeficiency virus type 1 isolates, Antimicrobial Agents and Chemotherapy, 38:23-30, 1994). 1×10^7 Jurkat T-cells (maintained in RPMI containing 10% fetal bovine serum, split 1:5 every 5 to 6 days) were co-transfected with EcoRI/HindIII digested mutant RT plasmid and Bst EII-digested HIV-1HXB2ΔRT DNA in the presence of DMRIE-C transfection reagent (Gibco) according to supplier's recommended protocol. Each mutant RT coding sequence was crossed into the RT-deleted HIV-1 viral DNA backbone by in vivo homologous recombination. Transfected cell cultures were expanded and monitored until syncitia formation and CPE were extensive. Virus was harvested by clear spin of the culture supernatants and frozen at −80 C as primary stock. Recombinant progeny virus was sequenced in the RT region to confirm the mutant genotype. Virus stocks were further expanded by infection of Jurkat cells, harvested and stored as frozen aliquots. Stocks were titered in HeLa MAGI cells for assay.
(§5) The HIV-1HXB2 mutants were titered in the HeLa MAGI assay system to determine the relative light units (RLU) per ml, a measure of infectivity relevant for this assay system. Virus stocks were diluted in a 2-fold series into DMEM containing 10% fetal bovine serum plus 20 ug/ml DEAE-dextran and assayed as described in the Experimental Protocol section, below.
(§6) 96-well microtiter plate(s) (Costar #3598) were seeded with 3×10^3 HeLa-CD4-LTR-β-gal in 100 μl DMEM containing 10% fetal bovine serum. Plates were placed in a 37° C., 5% CO2 humidified incubator overnight. The following day, mutant virus stocks were thawed in a room temperature water bath and diluted into DMEM containing 10% fetal bovine serum and 20 μg/ml DEAE-dextran to achieve an input of 1500 to 2000 RLU/ml. All media was removed with an 8 channel manifold aspirator and 35 μl (50 to 70 total RLUs) of diluted virus was added to each well for virus adsorption. Plates were placed in a 37° C., 5% CO2 humidified incubator for 1.5 to 2 hours.
(§7) Compound titration plates were prepared at 1.35× final concentration during the virus adsorption period. […]

[2] = system: isogenic HIV-1 RT mutant virus K103N; type: cell-based; conditions: Human immunodeficiency virus 1, HeLa, read-out: IC50 (nM) Range
Procedure: as §1, §2, §3, §4, §5, §6, §7

[3] = system: isogenic HIV-1 RT mutant virus P236L; type: cell-based; conditions: Human immunodeficiency virus 1, HeLa, read-out: IC50 (nM) Range
Procedure: as §1, §2, §3, §4, §5, §6, §7

[4] = system: isogenic HIV-1 RT mutant virus K103N/Y181C; type: cell-based; conditions: Human immunodeficiency virus 1, HeLa, read-out: IC50 (nM) Range
Procedure: as §1, §2, §3, §4, §5, §6, §7

[5] = system: isogenic HIV-1 RT mutant virus K103N/V108I; type: cell-based; conditions: Human immunodeficiency virus 1, HeLa, read-out: IC50 (nM) Range
Procedure: as §1, §2, §3, §4, §5, §6, §7

[6] = system: isogenic HIV-1 RT mutant virus K103N/P225H; type: cell-based; conditions: Human immunodeficiency virus 1, HeLa, read-out: IC50 (nM) Range
Procedure: as §1, §2, §3, §4, §5, §6, §7

[7] = system: isogenic HIV-1 RT mutant virus V106I; type: cell-based; conditions: Human immunodeficiency virus 1, HeLa, read-out: IC50 (nM) Range
Procedure: as §1, §2, §3, §4, §5, §6, §7

[8] = system: isogenic HIV-1 RT mutant virus L100I; type: cell-based; conditions: Human immunodeficiency virus 1, HeLa, read-out: IC50 (nM) Range
Procedure: as §1, §2, §3, §4, §5, §6, §7

[9] = system: isogenic HIV-1 RT mutant virus V106A/Y181C; type: cell-based; conditions: Human immunodeficiency virus 1, HeLa, read-out: IC50 (nM) Range
Procedure: as §1, §2, §3, §4, §5, §6, §7

[10] = system: isogenic HIV-1 RT mutant virus V108I; type: cell-based; conditions: Human immunodeficiency virus 1, HeLa, read-out: IC50 (nM) Range
Procedure: as §1, §2, §3, §4, §5, §6, §7

[11] = system: isogenic HIV-1 RT mutant virus V106I/Y181C; type: cell-based; conditions: Human immunodeficiency virus 1, HeLa, read-out: IC50 (nM) Range
Procedure: as §1, §2, §3, §4, §5, §6, §7

[12] = system: isogenic HIV-1 RT mutant virus V108I/Y181C; type: cell-based; conditions: Human immunodeficiency virus 1, HeLa, read-out: IC50 (nM) Range
Procedure: as §1, §2, §3, §4, §5, §6, §7

[13] = system: isogenic HIV-1 RT mutant virus K103N/G190A; type: cell-based; conditions: Human immunodeficiency virus 1, HeLa, read-out: IC50 (nM) Range
Procedure: as §1, §2, §3, §4, §5, §6, §7

[14] = system: isogenic HIV-1 RT mutant virus P225H; type: cell-based; conditions: Human immunodeficiency virus 1, HeLa, read-out: IC50 (nM) Range
Procedure: as §1, §2, §3, §4, §5, §6, §7

[15] = system: isogenic HIV-1 RT mutant virus Y181C; type: cell-based; conditions: Human immunodeficiency virus 1, HeLa, read-out: IC50 (nM) Range
Procedure: as §1, §2, §3, §4, §5, §6, §7

WTRVA = type: cell-based, HIV-1; conditions: Human immunodeficiency virus 1, Virus Type WTRVA, read-out: IC50 (nM) Range
Procedure: as §1, §2, §3, §4, §5, §6, §7

Compound	IC50 [1] [nM]	IC50 [2] [nM]	IC50 [3] [nM]	IC50 [4] [nM]	IC50 [5] [nM]	IC50 [6] [nM]	IC50 [7] [nM]	IC50 [8] [nM]	IC50 [9] [nM]	IC50 [10] [nM]	IC50 [11] [nM]	IC50 [12] [nM]	IC50 [13] [nM]	IC50 [14] [nM]	IC50 [15] [nM]	IC50 (WTRVA) [nM]
Cc1cc(S(N)(=O)=O)ccc1NC(=O)COc1ccc(Cl)cc1C(=O)c1cc(Cl)cc(C#N)c1 [Compound 475]	< 10	< 10	< 10	< 10	< 10	< 10	< 10	< 10	< 10	< 10	11 to 100	< 10	< 10	< 10	< 10	< 10
Cc1cc(C)cc(C(=O)c2cc(Cl)ccc2OCC(=O)Nc2ccc(S(N)(=O)=O)cc2C)c1 [Compound 478]	< 10	< 10	< 10	< 10	< 10	< 10	< 10	< 10	< 10	< 10	< 10	< 10	< 10	< 10	< 10	< 10
Cc1cc(S(N)(=O)=O)ccc1NC(=O)COc1ccc(Cl)cc1C(=O)c1cc(F)cc(C#N)c1 [Compound 491]	< 10	< 10	< 10	< 10	< 10	< 10	< 10	< 10	< 10	< 10	11 to 100	< 10	11 to 100	< 10	< 10	< 10
CCc1cc(C#N)cc(C(=O)c2cc(Cl)ccc2OCC(=O)Nc2ccc(S(N)(=O)=O)cc2C)c1 [Compound 498]	< 10	< 10	< 10	< 10	< 10	< 10	< 10	< 10	< 10	< 10	11 to 100	< 10	< 10	< 10	< 10	< 10
Cc1cc(C#N)cc(C(=O)c2cc(Cl)ccc2OCC(=O)Nc2ccc(S(N)(=O)=O)cc2C)c1 [Compound 564]	< 10	< 10	< 10	< 10	< 10	< 10	< 10	< 10	< 10		< 10	< 10	< 10	< 10	< 10	< 10
Cc1cc(S(N)(=O)=O)ccc1NC(=O)COc1ccc(Cl)cc1C(=O)c1cccc(C#N)n1 [Compound 637]	< 10	< 10	< 10	< 10	< 10	< 10	< 10	< 10	< 10		< 10	< 10	< 10	< 10	< 10	< 10

— patent US7273863B1, “Benzophenones as inhibitors of reverse transcriptase” (SmithKline Beecham Corporation, priority 1999, dated 2007)
